Columns and labels:
[1] = Observation of binding form with UCN by TEM and SEM; conditions: TEM / SEM after washing off unbound
From the text: The binding forms of RE-1 short peptide and REOB-1 phage with UCN were observed using a transmission electron microscope. The excess unbound polypeptides and phages were washed off from the complex of RE-1 and UCN. The complex was stained with uranium acetate (pH 6.7), and placed on a copper mesh coated with carbon film. A transmission electron microscope TEM (200 kV) (JEM-2100F, JEOL, Japan) was used for observation and imaging (FIG. 5A and FIG. 5B).
The binding form of RE-1 peptide to UCN was observed under a scanning electron microscope. The excess unbound polypeptides were washed off from the complex of RE-1 and UCN. The complex was placed on a copper mesh. A scanning electron microscope SEM (15 kV) (JEOL JSM-6700F, JEOL, Japan) was used for observation and imaging (FIG. 5C).

[2] = Binding of FITC-RE-1 to UCP (time, concentration, pH, salt, temperature); conditions: 10 μg FITC-RE-1, 100 μg UCP
Procedure: 10 μg of FITC-RE-1 was incubated with 100 μg of UCP for different time periods (2 min, 10 min, 30 min, 120 min, and 720 min). Then, the amount of FITC-RE-1 fluorescent peptide binding to UCP was measured by using fluorescence spectrophotometer.
100 μg of UCP was incubated with FITC-RE-1 at various concentrations (1 μg, 5 μg, 10 μg, and 20 μg) for 1 hr. The excess and unbound peptides were washed off. The amount of FITC-RE-1 fluorescent peptide binding to UCP was measured by using fluorescence spectrophotometer.
(§1) 10 μg of FITC-RE-1 was incubated with 100 μg of UCP dissolved at different pH values (pH 3, 5, 7, 10) for 1 hr. The excess and unbound peptides were washed off. The amount of FITC-RE-1 fluorescent peptide binding to UCP was measured by using fluorescence spectrophotometer.
as §1, with “salt ion concentrations (0 M, 0.15 M, 0.3 M, and 0.5 M NaCl)” for “pH values (pH 3, 5, 7, 10)”
as §1, with “dissolved in water” for “dissolved”, “temperatures (25° C., 37° C., 55° C., and 80° C.)” for “pH values (pH 3, 5, 7, 10)”

[3] = Dissociation of FITC-RE-1 from UCP over time; format: binding; conditions: after 48 hr, 37° C., shaking
Procedure: 250 μg FITC-RE-1 was thoroughly mixed with 500 μg UCN. The excess and unbound polypeptides were washed off. Then, the mixture was divided into five aliquots. The aliquots were gently shaked on a shaking table at 37° C. The amount of FITC-RE-1 dissociated in the supernatants was measured by using a fluorescence spectrophotometer at different time points (0 hr, 2 hr, 12 hr, 24 hr, and 48 hr).
The process described above was repeated except that 50 μg FITC-RE-1 and 500 μg UCP were used. The amount of FITC-RE-1 dissociated in the supernatants was measured.

[4] = Sedimentation / suspension time-dynamics curve of UCN (UV 500 nm); format: physicochemical; conditions: standing for 120 min; UCN with or without RE-1 coating
Procedure: 3 mg of UCN was mixed with 1.5 mg of RE-1 or its analogues RE-2, RE-3, or RE-5 as well as PEG, and the binding between them was performed according to a binding method. The excess and unbound RE-1 was washed off. The resultant precipitate was resuspended in 3 mL water, sonicated for 1 min, and then placed into a UV detection cell (X72053, Alpha Laboratories Ltd, UK). Observation was made using a UV spectrophotometer (DU-640, Beckman, USA) at an absorption wavelength of 500 nm for 120 min to obtain a time-dynamics curve.

[5] = test system: living HeLa cells, the immobilized cells, and the cell culturing plate; experiment: Nonspecific adherence of nanophosphors with or without RE-1 coating; format: cell-based; conditions: 2 hr treatment, washed 3 times with PBS
Procedure: Living HeLa cells (purchased from Institute of Biochemistry and Cell Biology, SIBS, CAS) cultured in a 96-well plate, immobilized cells, and cell culturing plate were treated with UCN and UCN-S with or without RE-1 coating for 2 hr, respectively, and then washed with PBS for 3 times. The binding of UCN nanoparticles to the living HeLa cells, the immobilized cells, and the cell culturing plate was observed under a fluorescence microscope (Olympus IX71, Olympus, Japan) equipped with a 980 nm infrared laser (MDL-980 nm 1W, Changchun New Industries Optoelectronics Tech. Co., Ltd, China).

HeLa cells = experiment: Diffusibility / adherence on coverslip with cells facing upward or downward; format: cell-based
Procedure: HeLa cells were cultured on a coverslip (22 mm×22 mm), which was then placed into a 6-well plate with the cells facing upward or downward, and the coverslip was supported by a sterilized glass cube (2 mm×2 mm×2 mm). Then, 4 mL DMEM medium (Gibco) containing the rare-earth upconversion nanophosphors (UCN, UCP) with or without RE-1 coating was slowly poured into the 6-well plate, such that the cells were fully immersed in the medium, and the coverslip is just located at the middle of the height of the liquid. The cells were placed into a cell incubator at 37° C. for 2 hr, and then washed with PBS 3 times. The UCNs adhered to the surfaces of the cells were observed under a fluorescence microscope (Olympus IX71, Olympus, Japan) equipped with a 980-nm infrared laser (MDL-980 nm 1 W, Changchun New Industries Optoelectronics Tech. Co., Ltd, China).

mice liver = experiment: Autophagosome formation in mice livers by transmission electron microscope; format: in vivo, Balb/c mice; conditions: RE-1 with UCN, PEG with UCN, AP-1 with UCP
Procedure: Balb/c mice (purchased from SLAC Laboratory Animal (Shanghai, China), 6 weeks old, and weighed 20 g when used) were bred in a sterile housing, and then 300 μg (dosage: 15 mg/kg) UCN, UCN+PEG (containing 10 mg PEG), UCN+RE-1, UCP, UCP+RE-1, or UCP+AP-1 was injected through tail vein. An equal volume of normal saline was injected as a control. After 24 hr, the livers of the mice were removed and subjected to western blotting assay.
The mice livers obtained as described in Example 21 were in situ fixed with 2.5% glutaral-dimethyl arsine buffer (pH 7.4) at 4° C. for 1 hr, then fixed with 2% osmium tetroxide at room temperature for 1 hr, and then dehydrated with ethanol gradients. Then, the cell samples were embedded into epoxy resin (EPON812). The embedded cell samples were cut into ultrathin slices, which were stained with uranyl acetate and lead citrate, and observed and imaged under a transmission electron microscope (JEOL-1230, JEOL, Japan).

In the case of “ACTARSPWICG [RE-1, RE-0 with terminal amino acids A and G added]”, the “binding form on the surface of UCN” value [1] is reported as “form a stable peptide coating on the surface of UCN”, the “binding to UCP at 2 min” value ([2]; 2 min) is reported as 50% and the “binding to UCP at 10 min” value ([2]; 10 min) is reported as “almost binding saturation”. The “dissociation from UCP” value [3] was “less than 1.5%”, the “suspension / sedimentation of UCN in water” value [4] was “still in suspension” and the “nonspecific adherence of UCN coated with RE-1 versus UCN without RE-1 coating” value [5] was “about 10 times lower”. The “nonspecific adherence of UCN-S coated with RE-1 versus UCN-S without RE-1 coating” value [5] was “about 100 times lower”, the “amount of nanophosphors (UCN, UCP) coated with RE-1 adhered to the cell surfaces” value (HeLa cells; cell-facing-upward group, 37° C., 2 hr) was “significantly reduced” and the “diffusibility of the rare-earth upconversion nanophosphors (UCN, UCP) in solution” value (HeLa cells; cells facing upward versus downward) was “reduced the diffusibility”. The “inhibition of autophagosome formation induced by nanophosphors (UCN, UCP) in liver” value (mice liver) was “significantly inhibited”.

— US9540418B2, “Polypeptide specifically binding to rare earth nanoparticles and use thereof” (University of Science and Technology of China, priority 2012, dated 2017)
